Laboratory results from patent US20090105206A1, “Copper Melphalan And Copper Tegafur As Anti-Tumor Agents” (priority 2004, published 2009).
Values joined by “and” are separate entries in the source; they are usually repeats but may differ in a detail not shown here. Equal entries are not always repeated.

How the values were obtained:
[1] = tested on: murine renal cell carcinoma (RENCA) tumor cells applied orthotopically; assay: Example 4: orthotopic renal cell carcinoma model (RENCA), treatment Day 1-7; primary tumor, metastases, vessel density (anti-CD31); type: in vivo, Balb/c mouse; details: for Kidney weight / Lung weight / Number of intestinal lymph node metastases / Number of lung metastases: day 19; for Kidney weight / Lung weight / Number of intestinal lymph node metastases / Number of lung metastases / Kidney volume: individual animals; for Kidney volume: test ended day 19
Experimental: The tests were carried out on a murine renal cell carcinoma model (RENCA) of the Balb/c mouse. The tumor cells were applied orthotopically into the left-hand renal capsule of syngenic mice. The effect of the treatment carried out on a primary tumor (in the implanted kidney), metastases (predominantly in the lungs, spleen and intestinal lymph nodes) and vessel density were investigated.
After anesthesia by means of isoflurane narcosis (O2— flow approx. 2.0 l with 0.5-1.5% isoflurane) a small incision was made in the mouse's left flank. The kidney was prepared and presented free from the peritoneum. A 27 G needle was introduced via the lower kidney pole through to below the renal capsule with visual inspection, and […] in 70 μl aliquots respectively applied once. The occurrence of a visible liquid-filled blister between kidney parenchyma and renal capsule and the discoloration of the kidneys were regarded as criteria for successful application. The kidney was subsequently reset and the incision into the abdominal wall closed by means of fascia stitches and cutaneous stitches with absorbable stitching material. Five test groups with ten animals respectively were formed. Group 1 negative control, group 2 positive control melphalan (Glaxo), group 3 and 4 MOC melphalan 2.5 mg/kg and 5 mg/kg. In the case of group 5 an antiangiogenically effective substance was applied as the positive control. The start of treatment was fixed for day 1 post op. for Cu(melphalan)2. Treatment was carried out daily up to day seven (see treatment model). The test was ended after 19 days since, owing to their size, the control tumors required termination for ethical reasons.
• The implantation day was counted as day 0. • Duration of the test 19 days. • Number of animals at beginning of test 50, no animals died during the op.
After selecting the animals the tissues to be examined were quickly transferred into liquid nitrogen and then frozen at −80° C. 5-10 μm thick sections were prepared from the tissue parts. The preparations were immunohistochemically dyed with an anti-CD31 antibody (Pecam-1) and the number of vessels in the control and treatment groups counted. Two sections of each tumor with three areas respectively were used for counting the vessels.

[2] = tested on: murine renal cell carcinoma (RENCA) tumor cells applied orthotopically; assay: Example 3: murine renal cell carcinoma model (RENCA), substance Day 10-18; type: in vivo, Balb/c mouse; details: 5 and 7.5 mg/kg per day i.p., Day 10-18, findings Day 19
Experimental: Using a murine renal cell carcinoma model (RENCA) of the Balb/c mouse a test of the effectiveness of mel-Cu-mel was carried out on the primary tumor, the metastases and the vessel density. For this the tumor cells were applied orthotopically into the left-hand peri-renal capsule of syngenic mice, the administered dose per day of treatment being: 5 mg/kg mouse and 7.5 mg/kg mouse, 5 animals per dose plus 5 animals for solvent control. The anti-tumor agent according to the invention Cu(mel)2 was applied intraperitonial. The treatment model was as follows:
As a control 5 animals were used to which no active ingredient was administered and for comparison a group of 5 animals were administered melphalan alone.

OVCAR-3/P19 tumor cells = assay: Example 6: NOD/SCID mice s.c. injected with OVCAR-3 tumor cells; type: in vivo, female NOD/SCID mice; set-up: Vol (tumor volume) Day 20 / Vol (tumor volume) Day 30 / Vol (tumor volume) Day 37: unit: cm^3
Experimental: 2×10^6 OVCAR-3/P19 tumor cells were s.c. injected into female NOD/SCID mice. The mice were treated as follows.
The treatment began with a mean tumor volume of 80 mm^3.
To level possible differences in tumor volume at the start of treatment in the individual groups and to make evident differences owing to the low absolute volumes in the treatment groups, the relative tumor volumes (RTV) have been analyzed. The relative tumor volume results from the ratio of the volume on day x and the tumor volume at the start of treatment in the same test animal. […] The tumor growth was stopped in group 2 after just 7 days. After 3 days of constant tumor volume a tumor regression began from day 30 (10th day of treatment) in the test animals treated with copper-melphalan.

[3] = Cu(melphalan)2 4.4 μmol/kg (2.5 mg/kg) i.p. Day 1-7
[4] = Cu(melphalan)2 8.8 μmol/kg (5 mg/kg/d) i.p. Day 1-7
[5] = dose of 2.5 mg/kg and 5 mg/kg, Day 1-7 i.p.
[6] = Gr. 3, 7.5 mg/kg copper-melphalan i.p., individual animals
[7] = Gr. 3, 7.5 mg/kg copper-melphalan i.p., n = 8
[8] = Gr. 3, 7.5 mg/kg copper-melphalan i.p., n = 8, baseline
[9] = Gr. 3, 7.5 mg/kg copper-melphalan vs 5 mg/kg melphalan
[10] = Gr. 3, 7.5 mg/kg copper-melphalan vs 5 mg/kg melphalan, baseline
[11] = Gr. 3, 7.5 mg/kg copper-melphalan vs control (PBS)
[12] = Gr. 3, 7.5 mg/kg copper-melphalan vs control (PBS), baseline

## N[C@@H](Cc1ccc(N(CCCl)CCCl)cc1)C(=O)[O-].N[C@@H](Cc1ccc(N(CCCl)CCCl)cc1)C(=O)[O-].O.O.[Cu+2] [Cu(melphalan)2]
[1]; [3]
  Kidney weight: 0.78 gr and 2.00 gr and 0.81 gr and 0.38 gr and 1.58 gr and 1.02 gr and 1.28 gr and 1.06 gr and 1.15 gr and 0.29 gr
  Lung weight: 0.20 gr and 0.31 gr and 0.49 gr and 1.07 gr and 0.11 gr (2×) and 0.14 gr and 0.24 gr and 0.13 gr (2×)
  Number of intestinal lymph node metastases: 1 and 2 and 3 and 4 and 0 (5×) and 6
  Number of lung metastases: 378 and >750 (4×) and 9 and 49 and 29 and 3 and 570
  Kidney volume: 1.54 cm^3 and 2.2 cm^3 and 1.2 cm^3 and 0.96 cm^3 and 2.13 cm^3 and 1.53 cm^3 and 1.71 cm^3 (2×) and 1.80 cm^3 and 0.60 cm^3
[1]; [4]
  Kidney weight: 0.79 gr (2×) and 0.19 gr and 1.06 gr and 0.59 gr and 0.85 gr and 0.74 gr and 0.18 gr and 0.29 gr and 0.36 gr
  Lung weight: 0.14 gr (2×) and 0.16 gr and 0.15 gr and 0.11 gr and 0.21 gr and 0.31 gr and 0.22 gr and 0.18 gr and 0.13 gr
  Number of intestinal lymph node metastases: 0 (8×) and 4 and 2
  Number of lung metastases: 11 and 4 (2×) and 162 and 0 and 680 and 16 and 610 and 92 and 7
  Kidney volume: 1.24 cm^3 and 0.44 cm^3 and 1.5 cm^3 and 1.2 cm^3 and 1.33 cm^3 and 1.30 cm^3 and 1.12 cm^3 and 0.6 cm^3 and 0.64 cm^3 and 1.26 cm^3
[1]; approximately quarter-equimolar dose (2.5 mg/kg, 4.4 μmol/kg vs 16.4 μmol/kg melphalan)
  effectiveness compared with melphalan: Effectiveness comparable with melphalan
[1]; approximately semi-equimolar dose (5 mg/kg, 8.8 μmol/kg vs 16.4 μmol/kg melphalan)
  effectiveness compared with melphalan alone: better effectiveness than melphalan alone
[1]; [5]
  anti-metastatic effect, intestinal lymph node metastases: significant anti-metastatic effect
  anti-tumor effect (primary tumor): significant anti-tumor effect
[1]; dose of 5 mg/kg, Day 1-7 i.p.
  anti-metastatic effect, lung metastases: significant anti-metastatic effect
[2]
  kidney weight and kidney volume compared with the control (FIG. 5): significantly lower kidney weight and kidney volume
  lung weight compared with the control and with melphalan alone (FIG. 6): reduced
Blue solid
  chemical stability: chemically stable
Investigations of kidney cell carcinoma and lung metastases formation
  effectiveness compared with melphalan: much more effective than melphalan
OVCAR-3/P19 tumor cells; 7.5 mg/kg copper-melphalan vs 5 mg/kg melphalan i.p.
  effectiveness compared with melphalan (RTV, FIG. 9): more effective than melphalan
OVCAR-3/P19 tumor cells; 7.5 mg/kg i.p., 10th day of treatment, after 3 days of constant tumor volume
  day from which tumor regression began: 30 days
OVCAR-3/P19 tumor cells; Gr. 3, 7.5 mg/kg copper-melphalan
  mice with tumor regression on day 37: 88%
OVCAR-3/P19 tumor cells; Gr. 3, 7.5 mg/kg copper-melphalan i.p. days 21-37 every 2nd day, Day 20 = start of treatment (baseline), individual animals
  Vol (tumor volume) Day 20: 0.08 and 0.11 and 0.05 and 0.04 and 0.10 and 0.02 and 0.09 and 0.12
OVCAR-3/P19 tumor cells; Gr. 3, 7.5 mg/kg copper-melphalan i.p., baseline, individual animals
  RTV (relative tumor volume) Day 20: 1.00
OVCAR-3/P19 tumor cells; [6]
  RTV (relative tumor volume) Day 30: 1.63 and 1.36 and 2.20 and 1.75 and 1.90 and 2.50 and 1.78 and 1.83
  RTV (relative tumor volume) Day 37: 2.78 and 0.63 and 0.43 and 0.78 and 0.67 and 0.70 and 0.60 and 0.51
  Vol (tumor volume) Day 30: 0.13 and 0.15 and 0.11 and 0.07 and 0.19 and 0.05 and 0.16 and 0.22
  Vol (tumor volume) Day 37: 0.05 (3×) and 0.14 and 0.03 and 0.07 and 0.01 and 0.06
OVCAR-3/P19 tumor cells; [7]
  RTV Day 30, mean: 1.87
  RTV Day 30, median: 1.81
  RTV Day 37, mean: 0.89
  RTV Day 37, median: 0.65
  Vol Day 30, mean: 0.14
  Vol Day 30, median: 0.14
  Vol Day 37, mean: 0.06
  Vol Day 37, median: 0.05
OVCAR-3/P19 tumor cells; [8]
  RTV Day 20, mean: 1.00
  RTV Day 20, median: 1.00
  Vol Day 20, mean: 0.08
  Vol Day 20, median: 0.09
OVCAR-3/P19 tumor cells; [9]
  RTV Day 30, mean in % of group 2: 82.1%
  RTV Day 30, median in % of group 2: 76.8%
  RTV Day 37, mean in % of group 2: 61.3%
  RTV Day 37, median in % of group 2: 45.7%
  Vol Day 30, mean in % of group 2: 80.6%
  Vol Day 30, median in % of group 2: 93.3%
  Vol Day 37, mean in % of group 2: 55.1%
  Vol Day 37, median in % of group 2: 63.4%
OVCAR-3/P19 tumor cells; [10]
  RTV Day 20, mean in % of group 2: 100.0%
  RTV Day 20, median in % of group 2: 100.0%
  Vol Day 20, mean in % of group 2: 89.7%
  Vol Day 20, median in % of group 2: 113.3%
OVCAR-3/P19 tumor cells; [11]
  RTV Day 30, mean in % of group 1: 31.5%
  RTV Day 30, median in % of group 1: 44.8%
  RTV Day 37, mean in % of group 1: 8.2%
  RTV Day 37, median in % of group 1: 8.0%
  Vol Day 30, mean in % of group 1: 37.6%
  Vol Day 30, median in % of group 1: 50.9%
  Vol Day 37, mean in % of group 1: 9.3%
  Vol Day 37, median in % of group 1: 7.0%
OVCAR-3/P19 tumor cells; [12]
  RTV Day 20, mean in % of group 1: 100.0%
  RTV Day 20, median in % of group 1: 100.0%
  Vol Day 20, mean in % of group 1: 81.3%
  Vol Day 20, median in % of group 1: 113.3%
OVCAR-3/P19 tumor cells; Mann-Whitney rank sum test, mean tumor volume p=0.021, mean RTV p=0.01
  statistical comparison of effectiveness with melphalan at end of treatment (day 37): statistically significant higher degree of effectiveness
